# Laboratory results as given in US20240174624A1, “CHIRAL N-(1,3,4-OXADIAZOLE-2-YL)PHENYL CARBOXYLIC ACID AMIDES AND THEIR USE AS HERBICIDES” (Bayer Aktiengesellschaft, priority 2021, published 2024).
# Tests used:
# [1] = system: PHBPU; experiment: Pre-emergence herbicidal action; type: in vivo, Pharbitis purpurea; details: 80 g/ha, scored after 3 weeks
# Source text: (§1) Seeds of monocotyledonous and dicotyledonous weed plants and crop plants are laid out in sandy loam soil in wood-fibre pots and covered with soil. The compounds of the invention, formulated in the form of wettable powders (WP) or as emulsion concentrates (EC), are then applied to the surface of the covering soil in the form of an aqueous suspension or emulsion at a water application rate equivalent to 600 to 800 l/ha, with addition of 0.2% wetting agent. After the treatment, the pots are placed in a greenhouse and kept under good growth conditions for the trial plants. The damage to the test plants is scored visually after a test period of 3 weeks by comparison with untreated controls (herbicidal activity in percent (%): 100% activity=the plants have died, 0% activity=like control plants). […] The tables below illustrate, in an illustrative manner, the post-emergence herbicidal action of the compounds of the invention, the herbicidal activity being stated in percent.
# [2] = system: ECHCG; experiment: Post-emergence herbicidal action; type: in vivo, Echinochloa crus-galli; details: assessed after about 3 weeks
# Method: (§2) Seeds of monocotyledonous and dicotyledonous weed and crop plants are laid out in sandy loam soil in wood-fibre pots, covered with soil and cultivated in a greenhouse under good growth conditions. 2 to 3 weeks after sowing, the test plants are treated at the one-leaf stage. The compounds of the invention, formulated in the form of wettable powders (WP) or as emulsion concentrates (EC), are then sprayed onto the green parts of the plants in the form of an aqueous suspension or emulsion at a water application rate equating to 600 to 800 l/ha, with addition of 0.2% wetting agent. After the test plants have been left to stand in the greenhouse under optimal growth conditions for about 3 weeks, the action of the preparations is assessed visually in comparison to untreated controls (herbicidal action in percent (%): 100% activity=the plants have died, 0% activity=like control plants). […] The tables below illustrate, in an illustrative manner, the post-emergence herbicidal action of the compounds of the invention, the herbicidal activity being stated in percent. In the experiments that follow, the herbicidal action of the compounds of the invention and that of the corresponding known racemic compounds closest from WO2012126932 and WO2018202535 were compared under the above-specified conditions by the pre-emergence and post-emergence method. The example numbers given in the tables relate to the compounds disclosed in the respective documents.
# [3] = system: STEME; experiment: Pre-emergence herbicidal action; type: in vivo, Stellaria media; details: comparative experiment
# Source text: as §1, with “percent. In the experiments that follow, the herbicidal action of the compounds of the invention and that of the corresponding known racemic compounds closest from WO2012126932 and WO2018202535 were compared under the above-specified conditions by the pre-emergence and post-emergence method. The example numbers given in the tables relate to the compounds disclosed in the respective documents.” for “percent.”
# [4] = system: ZEAMX; experiment: Pre-emergence damage to crop plants; type: in vivo, Zea mays; details: 320 g a.i./ha, comparative experiment
# Source text: as §1, with “percent. In the experiments that follow, the herbicidal action of the compounds of the invention and that of the corresponding known racemic compounds closest from WO2012126932 and WO2018202535 were compared under the above-specified conditions by the pre-emergence and post-emergence method. The example numbers given in the tables relate to the compounds disclosed in the respective documents.” for “percent.”
# [5] = system: VIOTR; experiment: Post-emergence herbicidal action; type: in vivo, Viola tricolor; details: assessed after about 3 weeks
# Method: as §2
# [6] = system: MATIN; experiment: Post-emergence herbicidal action; type: in vivo, Matricaria inodora; details: assessed after about 3 weeks
# Method: as §2, with “percent.” for “percent. In the experiments that follow, the herbicidal action of the compounds of the invention and that of the corresponding known racemic compounds closest from WO2012126932 and WO2018202535 were compared under the above-specified conditions by the pre-emergence and post-emergence method. The example numbers given in the tables relate to the compounds disclosed in the respective documents.”
# [7] = system: ALOMY; experiment: Pre-emergence herbicidal action; type: in vivo, Alopecurus myosuroides
# Source text: as §1, with “percent. In the experiments that follow, the herbicidal action of the compounds of the invention and that of the corresponding known racemic compounds closest from WO2012126932 and WO2018202535 were compared under the above-specified conditions by the pre-emergence and post-emergence method. The example numbers given in the tables relate to the compounds disclosed in the respective documents.” for “percent.”
# [8] = system: CYPES; experiment: Post-emergence herbicidal action; type: in vivo, Cyperus esculentus; details: 20 g a.i./ha, comparative experiment
# Method: as §2, with “The example numbers given in the tables relate to the compounds disclosed in the respective documents.” left out
# [9] = system: VERPE; experiment: Pre-emergence herbicidal action; type: in vivo, Veronica persica; details: for Herbicidal action against VERPE: comparative experiment; for Pre-emergence action against VERPE: scored after 3 weeks
# Source text: as §1, with “percent. In the experiments that follow, the herbicidal action of the compounds of the invention and that of the corresponding known racemic compounds closest from WO2012126932 and WO2018202535 were compared under the above-specified conditions by the pre-emergence and post-emergence method. The example numbers given in the tables relate to the compounds disclosed in the respective documents.” for “percent.”
# [10] = system: CYPES; experiment: Pre-emergence herbicidal action; type: in vivo, Cyperus esculentus; details: 20 g a.i./ha, comparative experiment
# Source text: as §1, with “percent. In the experiments that follow, the herbicidal action of the compounds of the invention and that of the corresponding known racemic compounds closest from WO2012126932 and WO2018202535 were compared under the above-specified conditions by the pre-emergence and post-emergence method. The example numbers given in the tables relate to the compounds disclosed in the respective documents.” for “percent.”
# [11] = system: VIOTR; experiment: Pre-emergence herbicidal action; type: in vivo, Viola tricolor; details: 80 g/ha, scored after 3 weeks
# Source text: as §1
# [12] = system: AMARE; experiment: Post-emergence herbicidal action; type: in vivo, Amaranthus retroflexus; details: assessed after about 3 weeks
# Method: as §2, with “percent.” for “percent. In the experiments that follow, the herbicidal action of the compounds of the invention and that of the corresponding known racemic compounds closest from WO2012126932 and WO2018202535 were compared under the above-specified conditions by the pre-emergence and post-emergence method. The example numbers given in the tables relate to the compounds disclosed in the respective documents.”
# [13] = system: SETVI; experiment: Post-emergence herbicidal action; type: in vivo, Setaria viridis; details: for Post-emergence action against SETVI: assessed after about 3 weeks
# Method: as §2
# [14] = system: STEME; experiment: Post-emergence herbicidal action; type: in vivo, Stellaria media; details: 5 g a.i./ha, comparative experiment
# Method: as §2
# [15] = system: SETVI; experiment: Pre-emergence herbicidal action; type: in vivo, Setaria viridis; details: for Pre-emergence action against SETVI: scored after 3 weeks
# Source text: as §1, with “percent. In the experiments that follow, the herbicidal action of the compounds of the invention and that of the corresponding known racemic compounds closest from WO2012126932 and WO2018202535 were compared under the above-specified conditions by the pre-emergence and post-emergence method. The example numbers given in the tables relate to the compounds disclosed in the respective documents.” for “percent.”
# [16] = system: MATIN; experiment: Pre-emergence herbicidal action; type: in vivo, Matricaria inodora; details: for Pre-emergence action against MATIN: scored after 3 weeks
# Source text: as §1, with “percent. In the experiments that follow, the herbicidal action of the compounds of the invention and that of the corresponding known racemic compounds closest from WO2012126932 and WO2018202535 were compared under the above-specified conditions by the pre-emergence and post-emergence method. The example numbers given in the tables relate to the compounds disclosed in the respective documents.” for “percent.”
# [17] = system: POLCO; experiment: Pre-emergence herbicidal action; type: in vivo, Polygonum convolvulus; details: 320 g a.i./ha, comparative experiment
# Source text: as §1, with “percent. In the experiments that follow, the herbicidal action of the compounds of the invention and that of the corresponding known racemic compounds closest from WO2012126932 and WO2018202535 were compared under the above-specified conditions by the pre-emergence and post-emergence method. The example numbers given in the tables relate to the compounds disclosed in the respective documents.” for “percent.”
# [18] = system: AVEFA; experiment: Pre-emergence herbicidal action; type: in vivo, Avena fatua
# Source text: as §1, with “percent. In the experiments that follow, the herbicidal action of the compounds of the invention and that of the corresponding known racemic compounds closest from WO2012126932 and WO2018202535 were compared under the above-specified conditions by the pre-emergence and post-emergence method. The example numbers given in the tables relate to the compounds disclosed in the respective documents.” for “percent.”
# [19] = system: VERPE; experiment: Post-emergence herbicidal action; type: in vivo, Veronica persica
# Method: as §2
# [20] = system: PHBPU; experiment: Post-emergence herbicidal action; type: in vivo, Pharbitis purpurea; details: 20 g/ha, assessed after about 3 weeks
# Method: as §2, with “percent.” for “percent. In the experiments that follow, the herbicidal action of the compounds of the invention and that of the corresponding known racemic compounds closest from WO2012126932 and WO2018202535 were compared under the above-specified conditions by the pre-emergence and post-emergence method. The example numbers given in the tables relate to the compounds disclosed in the respective documents.”
# [21] = system: AMARE; experiment: Pre-emergence herbicidal action; type: in vivo, Amaranthus retroflexus; details: scored after 3 weeks
# Source text: as §1
# [22] = system: ECHCG; experiment: Pre-emergence herbicidal action; type: in vivo, Echinochloa crus-galli; details: scored after 3 weeks
# Source text: as §1
# [23] = 20 g a.i./ha, comparative experiment
# [24] = 5 g a.i./ha, comparative experiment
structure (smiles),measurement,setting,value
"Cc1nnc(NC(=O)c2ccc(C(F)(F)F)c([S+](C)[O-])c2Cl)o1 (stereo in doubt) [Example I-5, 2-chloro-N-(5-methyl-1,3,4-oxadiazol-2-yl)-3-[(S)-methylsulfinyl]-4-(trifluoromethyl)benzamide]",Pre-emergence action against PHBPU,[1],100%
same,Post-emergence action against ECHCG,[2]; 5 g/ha,90%
same,Post-emergence action against ECHCG,[2]; 20 g/ha,100%
same,Herbicidal action against STEME,[3]; 20 g a.i./ha,100%
same,Herbicidal action against STEME,[3]; 80 g a.i./ha,100%
same,Herbicidal action against STEME,[3]; 320 g a.i./ha,100%
same,Herbicidal action against ZEAMX,[4],40%
same,Post-emergence action against VIOTR,[5]; 5 g/ha,100%
same,Post-emergence action against VIOTR,[5]; 20 g/ha,100%
same,Post-emergence action against MATIN,[6]; 5 g/ha,80%
same,Post-emergence action against MATIN,[6]; 20 g/ha,90%
same,Herbicidal action against ALOMY,[7]; [23],60%
same,Pre-emergence action against ALOMY,"[7]; 80 g/ha, scored after 3 weeks",80%
same,Herbicidal action against CYPES,[8],80%
same,Herbicidal action against VERPE,[9]; 20 g a.i./ha,30%
same,Pre-emergence action against VERPE,[9]; 20 g/ha,80%
same,Herbicidal action against VERPE,[9]; 80 g a.i./ha,100%
same,Pre-emergence action against VERPE,[9]; 80 g/ha,100%
same,Herbicidal action against CYPES,[10],90%
same,Pre-emergence action against VIOTR,[11],100%
same,Post-emergence action against AMARE,[12]; 5 g/ha,100%
same,Post-emergence action against AMARE,[12]; 20 g/ha,100%
same,Herbicidal action against SETVI,[13]; [24],100%
same,Post-emergence action against SETVI,[13]; 5 g/ha,80%
same,Post-emergence action against SETVI,[13]; 20 g/ha,100%
same,Herbicidal action against STEME,[14],80%
same,Pre-emergence action against SETVI,[15]; 5 g/ha,80%
same,Herbicidal action against SETVI,[15]; [23],100%
same,Pre-emergence action against SETVI,[15]; 20 g/ha,100%
same,Pre-emergence action against SETVI,[15]; 80 g/ha,100%
same,Herbicidal action against MATIN,[16]; [23],90%
same,Pre-emergence action against MATIN,[16]; 20 g/ha,80%
same,Pre-emergence action against MATIN,[16]; 80 g/ha,100%
same,Herbicidal action against POLCO,[17],80%
same,Herbicidal action against AVEFA,[18]; [23],90%
same,Pre-emergence action against AVEFA,"[18]; 80 g/ha, scored after 3 weeks",80%
same,Herbicidal action against VERPE,[19]; [24],40%
same,Post-emergence action against VERPE,"[19]; 20 g/ha, assessed after about 3 weeks",90%
same,Post-emergence action against PHBPU,[20],90%
same,Pre-emergence action against AMARE,[21]; 20 g/ha,90%
same,Pre-emergence action against AMARE,[21]; 80 g/ha,100%
same,Pre-emergence action against ECHCG,[22]; 20 g/ha,100%
same,Pre-emergence action against ECHCG,[22]; 80 g/ha,100%
